Data on 1 molecule can be found in patent US6608055B2, “Crystalline anticholinergic, processes for preparing it and its use for preparing a pharmaceutical composition” (Boehringer Ingelheim Pharma KG, priority 2001, dated 2003).

This series is described as follows: storage of the anhydrous form at controlled relative humidity (preservation of anhydrous state). It is filed as physicochemical. Particulars: coarse crystals, r.h. = relative humidity. How it is done: Alternatively to the drying step at elevated temperature under reduced pressure described above, the anhydrous form may also be prepared by storing the crystalline tiotropium bromide monohydrate over a drying agent, preferably over dried silica gel at ambient temperature for a period of 12 to 96 hours, preferably 18 to 72 hours, most preferably at least 24 hours. The anhydrous form thus obtained should be stored more or less dry, depending on the particle size, to preserve its anhydrous state. In the case of coarse crystals of anhydrous tiotropium bromide, which may be prepared for example as described above, storage at <75% r.h. (relative humidity) is sufficient to maintain the anhydrous state. In the micronised state, i.e. where the material has a much larger surface area, water may even be absorbed at lower humidity levels. In order to maintain the anhydrous form in the micronised state, it is therefore advisable to store the anhydrous form of tiotropium bromide over dried silica gel until it is further processed to form the desired inhalable powder containing suitable excipients (e.g. lactose) in addition to tiotropium bromide.

Regarding `C[N+]1(C)C2C[C@H](OC(=O)C(O)(c3cccs3)c3cccs3)CC1[C@H]1OC21` (stereo partly drawn) [anhydrous tiotropium bromide, (1α,2β,4β,5α,7β)-7-[(hydroxydi-2-thienylacetyl)oxy]-9,9-dimethyl-3-oxa-9-azoniatricyclo[3.3.1.0^2,4]nonane-bromide], the “relative humidity of storage sufficient to maintain the anhydrous state” value is listed as less than 75 % r.h.
